From ChEMBL document CHEMBL5034019, “Discovery of the Next-Generation Pan-TRK Kinase Inhibitors for the Treatment of Cancer” (J Med Chem, 2021)
pIC50: −log10 of the molar value. In brackets after ≈: the same amount, converted by molar mass.

Columns and labels:
[1] = target: High affinity nerve growth factor receptor (Homo sapiens, UniProt P04629)
Description: Inhibition of TrKA (unknown origin) incubated for 120 mins in presence of 33P-ATP

[2] = Apparent permeability across apical to basolateral side in human Caco-2 cells incubated for 2 hrs by LC-MS/MS analysis; assay type: ADME, cell-based
[3] = Metabolic stability in human liver microsomes assessed as intrinsic clearance at 1 uM by LC-MS/MS analysis; assay type: ADME, Microsome; conditions: read-out: CLH
[4] = Metabolic stability in rat liver microsomes assessed as intrinsic clearance at 1 uM by LC-MS/MS analysis; assay type: ADME, Microsome; conditions: read-out: CLH
[5] = Metabolic stability in mouse liver microsomes assessed as intrinsic clearance at 1 uM by LC-MS/MS analysis; assay type: ADME, Microsome; conditions: read-out: CLH
[6] = Metabolic stability in dog liver microsomes assessed as intrinsic clearance at 1 uM by LC-MS/MS analysis; assay type: ADME, Canis lupus familiaris, Microsome; conditions: read-out: CLH
[7] = Protein binding in human plasma assessed as unbound fraction by LC-MS/MS based equilibrium dialysis method; assay type: ADME, cell-free
[8] = Protein binding in rat plasma assessed as unbound fraction by LC-MS/MS based equilibrium dialysis method; assay type: ADME, cell-free
[9] = Protein binding in mouse plasma assessed as unbound fraction by LC-MS/MS based equilibrium dialysis method; assay type: ADME, cell-free
[10] = Protein binding in dog plasma assessed as unbound fraction by LC-MS/MS based equilibrium dialysis method; assay type: ADME, cell-free, Canis lupus familiaris
BaF3 [11] = assay: Cytotoxicity against mouse BaF3 cells transfected with TrKA G595R mutant assessed as reduction in cell viability by MTT assay; assay type: functional, cell-based
BaF3 [12] = assay: Cytotoxicity against mouse BaF3 cells transfected with TrKA G623R mutant assessed as reduction in cell viability by MTT assay; assay type: functional, cell-based
BaF3 [13] = assay: Cytotoxicity against mouse BaF3 cells transfected with SLC34A2-Ros1 assessed as reduction in cell viability by MTT assay; assay type: functional, cell-based
[14] = target: High affinity nerve growth factor receptor (Homo sapiens, UniProt P04629, G595R)
[15] = target: ALK tyrosine kinase receptor (Homo sapiens, UniProt Q9UM73)
Description: Inhibition of ALK (unknown origin) incubated for 120 mins in presence of 33P-ATP

[16] = target: Voltage-gated inwardly rectifying potassium channel KCNH2 (Homo sapiens, UniProt Q12809); assay: Inhibition of human ERG
[17] = Kinetic solubility of the compound; assay type: physicochemical; conditions: read-out: Kinetic_solubility
Cytochrome P450 1A2 = target: T1, Cytochrome P450 1A2 (Homo sapiens, UniProt P05177); assay: Inhibition of CYP1A2 in human pooled liver microsomes using phenacetin as substrate in presence of NADPH by LC-MS/MS analysis; assay type: ADME
T1 sequence (P05177 whole entry): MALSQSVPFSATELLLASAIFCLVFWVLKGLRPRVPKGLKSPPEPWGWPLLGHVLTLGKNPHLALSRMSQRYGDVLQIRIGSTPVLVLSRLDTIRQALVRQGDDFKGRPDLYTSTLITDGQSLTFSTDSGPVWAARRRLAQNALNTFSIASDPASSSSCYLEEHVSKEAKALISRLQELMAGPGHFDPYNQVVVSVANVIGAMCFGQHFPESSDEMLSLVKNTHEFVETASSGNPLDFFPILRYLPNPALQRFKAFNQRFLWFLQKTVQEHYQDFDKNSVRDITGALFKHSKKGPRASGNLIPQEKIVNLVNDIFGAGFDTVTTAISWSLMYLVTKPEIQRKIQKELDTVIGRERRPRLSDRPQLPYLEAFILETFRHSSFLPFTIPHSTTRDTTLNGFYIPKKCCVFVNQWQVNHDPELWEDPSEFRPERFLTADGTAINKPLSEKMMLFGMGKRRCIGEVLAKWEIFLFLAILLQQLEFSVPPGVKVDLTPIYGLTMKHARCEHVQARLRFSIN

Cytochrome P450 2C9 = Cytochrome P450 2C9 (Homo sapiens, UniProt P11712); assay: Inhibition of CYP2C9 in human pooled liver microsomes using diclofenac as substrate in presence of NADPH by LC-MS/MS analysis; assay type: ADME
Cytochrome P450 2C19 = Cytochrome P450 2C19 (Homo sapiens, UniProt P33261); assay: Inhibition of CYP2C19 in human pooled liver microsomes using S-mephenytoin as substrate in presence of NADPH by LC-MS/MS analysis; assay type: ADME
Cytochrome P450 2D6 = Cytochrome P450 2D6 (Homo sapiens, UniProt P10635); assay: Inhibition of CYP2D6 in human pooled liver microsomes using dextromethorphan as substrate in presence of NADPH by LC-MS/MS analysis; assay type: ADME
Cytochrome P450 3A4 = Cytochrome P450 3A4 (Homo sapiens, UniProt P08684); assay: Inhibition of CYP3A4 in human pooled liver microsomes using midazolam and testosterone as substrate in presence of NADPH by LC-MS/MS analysis; assay type: ADME
[18] = C0 in Sprague-Dawley rat at 3 mg/kg measured up to 24 hrs by LC/MS/MS analysis; assay type: ADME, organism-based; conditions: in vivo
[19] = Half life in Sprague-Dawley rat at 3 mg/kg measured up to 24 hrs by LC-MS/MS analysis; assay type: ADME, organism-based; conditions: in vivo
[20] = Volume of distribution in Sprague-Dawley rat at 3 mg/kg measured up to 24 hrs by LC-MS/MS analysis; assay type: ADME, organism-based; conditions: in vivo
[21] = Clearance in Sprague-Dawley rat at 3 mg/kg measured up to 24 hrs by LC/MS/MS analysis; assay type: ADME, organism-based; conditions: in vivo
[22] = AUC (0 to t) in Sprague-Dawley rat at 3 mg/kg measured up to 24 hrs by LC-MS/MS analysis; assay type: ADME, organism-based; set-up: dose 3 mg/kg, time <=24; conditions: in vivo
[23] = Cmax in Sprague-Dawley rat at 10 mg/kg, po measured up to 24 hrs by LC-MS/MS analysis; assay type: ADME, organism-based; set-up: route oral, dose 10 mg/kg, time <=24; conditions: in vivo
[24] = Tmax in Sprague-Dawley rat at 10 mg/kg, po measured up to 24 hrs by LC-MS analysis; assay type: ADME, organism-based; conditions: in vivo
[25] = AUC (0 to t) in Sprague-Dawley rat at 10 mg/kg, po measured up to 24 hrs by LC-MS/MS analysis; assay type: ADME, organism-based; set-up: route oral, dose 10 mg/kg, time <=24; conditions: in vivo
[26] = Oral bioavailability in Sprague-Dawley rat at 10 mg/kg measured up to 24 hrs by LC/MS/MS analysis; assay type: ADME, organism-based; conditions: in vivo
BaF3 [27] = assay: Cytotoxicity against mouse BaF3 cells transfected with TrKA F589L mutant assessed as reduction in cell viability by MTT assay; assay type: functional, cell-based
BaF3 [28] = assay: cells; conditions: Mus musculus
Description: Cytotoxicity against mouse BaF3 cells transfected with TrKA assessed as reduction in cell viability by MTT assay

Chain of High affinity nerve growth factor receptor (Homo sapiens, UniProt P04629) (P04629 whole entry): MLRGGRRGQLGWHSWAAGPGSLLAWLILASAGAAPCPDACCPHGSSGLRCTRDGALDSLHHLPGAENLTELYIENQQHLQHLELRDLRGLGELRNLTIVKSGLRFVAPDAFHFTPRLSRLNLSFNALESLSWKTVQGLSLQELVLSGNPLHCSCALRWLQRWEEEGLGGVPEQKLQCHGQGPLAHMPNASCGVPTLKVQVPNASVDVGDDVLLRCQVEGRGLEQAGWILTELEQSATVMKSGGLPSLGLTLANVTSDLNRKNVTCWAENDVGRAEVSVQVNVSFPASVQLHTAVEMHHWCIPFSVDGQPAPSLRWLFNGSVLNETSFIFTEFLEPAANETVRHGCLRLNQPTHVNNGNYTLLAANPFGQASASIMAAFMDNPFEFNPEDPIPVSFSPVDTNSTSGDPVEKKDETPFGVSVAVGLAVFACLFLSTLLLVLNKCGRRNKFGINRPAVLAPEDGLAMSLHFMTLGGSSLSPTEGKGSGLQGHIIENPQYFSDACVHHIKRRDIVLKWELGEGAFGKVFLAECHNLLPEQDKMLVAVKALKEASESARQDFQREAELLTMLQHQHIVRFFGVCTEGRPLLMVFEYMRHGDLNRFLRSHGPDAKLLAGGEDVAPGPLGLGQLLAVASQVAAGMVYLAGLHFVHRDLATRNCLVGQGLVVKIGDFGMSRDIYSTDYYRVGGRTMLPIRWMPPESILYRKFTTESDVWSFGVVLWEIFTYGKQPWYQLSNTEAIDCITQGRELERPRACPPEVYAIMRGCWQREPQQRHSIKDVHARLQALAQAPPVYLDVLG
Chain of ALK tyrosine kinase receptor (Q9UM73 whole entry): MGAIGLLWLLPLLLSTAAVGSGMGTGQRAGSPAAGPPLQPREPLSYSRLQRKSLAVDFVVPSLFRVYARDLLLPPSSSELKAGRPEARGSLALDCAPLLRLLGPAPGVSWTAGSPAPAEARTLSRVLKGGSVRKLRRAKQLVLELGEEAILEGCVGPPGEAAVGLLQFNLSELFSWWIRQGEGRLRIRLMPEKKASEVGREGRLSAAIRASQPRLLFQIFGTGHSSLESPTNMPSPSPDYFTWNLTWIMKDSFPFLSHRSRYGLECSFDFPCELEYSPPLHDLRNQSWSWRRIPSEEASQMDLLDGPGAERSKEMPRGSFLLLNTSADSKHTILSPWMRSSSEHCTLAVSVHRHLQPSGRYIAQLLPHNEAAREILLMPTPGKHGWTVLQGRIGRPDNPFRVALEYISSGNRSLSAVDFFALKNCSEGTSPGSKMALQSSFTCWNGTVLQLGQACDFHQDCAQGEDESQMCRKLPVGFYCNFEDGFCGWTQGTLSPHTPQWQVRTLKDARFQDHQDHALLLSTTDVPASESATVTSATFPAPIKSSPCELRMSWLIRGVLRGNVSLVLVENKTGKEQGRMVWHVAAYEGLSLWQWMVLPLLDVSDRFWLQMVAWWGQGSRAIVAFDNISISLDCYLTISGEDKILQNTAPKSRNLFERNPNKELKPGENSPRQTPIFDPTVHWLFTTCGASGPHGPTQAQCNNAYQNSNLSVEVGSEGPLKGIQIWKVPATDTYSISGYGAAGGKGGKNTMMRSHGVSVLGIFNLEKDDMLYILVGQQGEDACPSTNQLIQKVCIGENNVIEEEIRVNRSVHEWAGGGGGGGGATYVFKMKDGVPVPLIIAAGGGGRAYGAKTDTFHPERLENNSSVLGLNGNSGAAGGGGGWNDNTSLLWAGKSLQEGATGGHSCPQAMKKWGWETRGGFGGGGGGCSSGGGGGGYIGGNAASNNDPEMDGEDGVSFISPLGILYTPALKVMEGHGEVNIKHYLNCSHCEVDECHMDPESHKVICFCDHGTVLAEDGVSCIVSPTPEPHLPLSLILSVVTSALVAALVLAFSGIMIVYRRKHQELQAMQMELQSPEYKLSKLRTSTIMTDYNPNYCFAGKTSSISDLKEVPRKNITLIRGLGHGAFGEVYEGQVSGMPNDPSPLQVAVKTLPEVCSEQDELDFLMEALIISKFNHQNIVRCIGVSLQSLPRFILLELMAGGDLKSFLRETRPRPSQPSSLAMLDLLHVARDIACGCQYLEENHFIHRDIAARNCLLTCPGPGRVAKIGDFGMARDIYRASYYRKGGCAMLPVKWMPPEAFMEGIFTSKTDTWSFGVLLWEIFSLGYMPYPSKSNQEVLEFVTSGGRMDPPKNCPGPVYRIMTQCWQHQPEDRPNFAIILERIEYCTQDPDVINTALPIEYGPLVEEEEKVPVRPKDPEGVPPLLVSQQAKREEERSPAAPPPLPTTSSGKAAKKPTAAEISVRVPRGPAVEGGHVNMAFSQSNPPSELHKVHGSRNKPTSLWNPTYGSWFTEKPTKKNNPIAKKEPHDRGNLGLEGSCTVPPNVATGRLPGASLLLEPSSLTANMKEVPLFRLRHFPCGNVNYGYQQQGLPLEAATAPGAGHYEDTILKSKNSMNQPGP
Chain of Cytochrome P450 2C9 (P11712 whole entry): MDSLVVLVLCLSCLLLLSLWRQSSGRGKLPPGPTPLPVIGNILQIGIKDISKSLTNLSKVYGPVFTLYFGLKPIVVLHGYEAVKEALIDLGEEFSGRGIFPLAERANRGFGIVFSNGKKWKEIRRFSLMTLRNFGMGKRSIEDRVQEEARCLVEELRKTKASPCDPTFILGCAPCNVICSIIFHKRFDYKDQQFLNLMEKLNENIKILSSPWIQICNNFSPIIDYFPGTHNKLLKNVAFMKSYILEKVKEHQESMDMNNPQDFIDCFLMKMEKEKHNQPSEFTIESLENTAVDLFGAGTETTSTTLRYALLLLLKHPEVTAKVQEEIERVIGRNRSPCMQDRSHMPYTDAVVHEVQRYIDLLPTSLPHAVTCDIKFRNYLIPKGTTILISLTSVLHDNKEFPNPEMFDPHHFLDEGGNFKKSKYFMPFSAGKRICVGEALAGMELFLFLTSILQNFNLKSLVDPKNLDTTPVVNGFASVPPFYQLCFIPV
Chain of Cytochrome P450 2C19 (P33261 whole entry): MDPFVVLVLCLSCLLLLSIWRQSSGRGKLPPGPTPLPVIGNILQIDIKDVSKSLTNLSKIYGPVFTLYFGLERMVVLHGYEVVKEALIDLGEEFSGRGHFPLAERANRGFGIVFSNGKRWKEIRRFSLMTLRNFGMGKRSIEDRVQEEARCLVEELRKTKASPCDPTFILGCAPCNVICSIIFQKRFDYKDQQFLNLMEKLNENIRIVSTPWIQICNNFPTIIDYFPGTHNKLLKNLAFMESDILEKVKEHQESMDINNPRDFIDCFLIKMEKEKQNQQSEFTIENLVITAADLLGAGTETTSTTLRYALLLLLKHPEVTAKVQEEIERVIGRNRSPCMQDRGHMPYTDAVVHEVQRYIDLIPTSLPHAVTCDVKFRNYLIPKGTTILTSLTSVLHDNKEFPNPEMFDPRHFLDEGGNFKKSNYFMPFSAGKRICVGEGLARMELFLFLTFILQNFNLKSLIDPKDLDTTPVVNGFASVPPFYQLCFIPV
Chain of High affinity nerve growth factor receptor (Homo sapiens, UniProt P04629, G595R) (P04629 33-796 G595R limits assumed): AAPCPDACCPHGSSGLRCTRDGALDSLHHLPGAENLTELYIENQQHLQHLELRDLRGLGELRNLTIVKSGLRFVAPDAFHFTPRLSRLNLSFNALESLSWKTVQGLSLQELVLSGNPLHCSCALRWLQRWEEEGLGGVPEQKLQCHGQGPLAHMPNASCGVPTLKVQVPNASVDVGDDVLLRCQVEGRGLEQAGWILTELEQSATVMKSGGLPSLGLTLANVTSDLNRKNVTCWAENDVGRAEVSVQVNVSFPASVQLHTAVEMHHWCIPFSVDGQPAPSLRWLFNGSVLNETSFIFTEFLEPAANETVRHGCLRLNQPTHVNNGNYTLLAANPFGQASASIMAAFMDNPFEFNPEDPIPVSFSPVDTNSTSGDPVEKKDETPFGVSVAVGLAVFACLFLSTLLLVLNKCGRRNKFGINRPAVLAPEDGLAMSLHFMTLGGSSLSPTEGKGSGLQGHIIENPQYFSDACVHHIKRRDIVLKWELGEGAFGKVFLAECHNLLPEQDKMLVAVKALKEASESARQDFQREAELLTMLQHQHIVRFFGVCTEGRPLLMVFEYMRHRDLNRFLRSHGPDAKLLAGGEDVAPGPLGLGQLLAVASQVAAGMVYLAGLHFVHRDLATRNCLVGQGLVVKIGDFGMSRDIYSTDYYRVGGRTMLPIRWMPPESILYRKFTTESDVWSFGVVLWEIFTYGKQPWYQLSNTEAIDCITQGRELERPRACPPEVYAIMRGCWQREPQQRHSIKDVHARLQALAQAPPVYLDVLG
Chain of Cytochrome P450 2D6 (P10635 whole entry): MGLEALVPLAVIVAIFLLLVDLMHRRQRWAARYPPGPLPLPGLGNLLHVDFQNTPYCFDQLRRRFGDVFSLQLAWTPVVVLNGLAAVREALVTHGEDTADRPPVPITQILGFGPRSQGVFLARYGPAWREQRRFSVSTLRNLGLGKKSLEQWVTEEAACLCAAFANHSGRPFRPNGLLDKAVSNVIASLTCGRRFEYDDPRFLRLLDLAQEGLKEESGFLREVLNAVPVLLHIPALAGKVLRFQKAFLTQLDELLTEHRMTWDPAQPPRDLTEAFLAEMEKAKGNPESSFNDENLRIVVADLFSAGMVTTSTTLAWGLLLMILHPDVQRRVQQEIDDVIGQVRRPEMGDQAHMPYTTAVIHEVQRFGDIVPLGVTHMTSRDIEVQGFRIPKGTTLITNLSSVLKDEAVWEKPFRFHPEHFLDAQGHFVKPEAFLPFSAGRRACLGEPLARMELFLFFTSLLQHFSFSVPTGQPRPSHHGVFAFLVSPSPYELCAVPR

pIC50 [1]	Papp A→B at 2 h [2] [×10⁻⁶ cm/s]	CLint scaled at 1 µM [3] [mL/min/kg]	CLint scaled at 1 µM [4] [mL/min/kg]	CLint scaled at 1 µM [5] [mL/min/kg]	CLint scaled at 1 µM [6] [mL/min/kg]	fraction unbound [7]	fraction unbound [8]	fraction unbound [9]	fraction unbound [10]	SMILES	further results
< 6.00										C[C@H]1Nc2ccn3ncc(c3n2)C(=O)N2CCC(CC2)c2ccc(F)cc21	
< 6.00										C[C@H]1Nc2ccn3ncc(c3n2)C(=O)N2CCN(CC2)c2ccc(F)cc21	
8.49	16.3	242	980	1010	268	0.02	0.02	0.02	0.03	O=C1NC2(CC2)COc2ncc(F)cc2[C@H]2CCCCN2c2ccn3ncc1c3n2	pIC50 (BaF3 [11]): 9.40; pIC50 (BaF3 [12]): 8.24; pIC50 (BaF3 [13]): 7.90; pIC50 [14]: 8.68; pIC50 [15]: 7.73
	3.9	43	29	342	74	0.36	0.3	0.28	0.34	O=C1NC2(CC2)COc2ncc(F)cc2[C@H]2CNCCN2c2ccn3ncc1c3n2	pIC50 [16]: 5.17
6.07										C[C@H]1NC(=O)c2cnn3ccc(nc23)N[C@H](C)c2cc(F)ccc2NC1=O	
< 6.00										C[C@H]1CNS(=O)(=O)c2cnn3ccc(nc23)N[C@H](C)c2cc(F)ccc2O1	
	0.9	29	49	982	21	0.05	0.06	0.05	0.09	C[C@H]1CNC(=O)c2cnn3ccc(nc23)N[C@H](C)c2cc(F)ccc2O1 [REPOTRECTINIB]	solubility kinetic [17]: 65.8 µM (≈ 23.4 µg/mL); pIC50 (Cytochrome P450 1A2): < 4.30; pIC50 (Cytochrome P450 2C9): 5.19; pIC50 (Cytochrome P450 2C19): 4.91; pIC50 (Cytochrome P450 2D6): 4.55; pIC50 (Cytochrome P450 3A4): < 4.30; C0 [18]: 12.87 µM; half-life [19]: 2.8 h; Vd [20]: 1.1 L/kg; clearance [21]: 9.4 mL/min/kg; AUC(0-t) at 24 h [22]: 15 µM·h; Cmax [23]: 16.9 µM; Tmax [24]: 0.8 h; AUC(0-t) at 24 h [25]: 59.7 µM·h; bioavailability [26]: 119%; pIC50 (BaF3 [11]): 8.10; pIC50 (BaF3 [27]): 9.15; pIC50 (BaF3 [12]): 8.32; pIC50 (BaF3 [13]): 8.66; pIC50 (BaF3 [28]): 8.74
7.17										C[C@@H]1COc2ncc(F)cc2C23CC2CCN3c2ccn3ncc(c3n2)C(=O)N1 (some centres undefined)	
